Results reported in paper PMC9138505, “Small Molecule 20S Proteasome Enhancer Regulates MYC Protein Stability and Exhibits Antitumor Activity in Multiple Myeloma” (Biomedicines, 2022).
Values joined by “and” are separate entries in the source; they are usually repeats but may differ in a detail not shown here. Equal entries are not always repeated.

Tested on: RPMI-8226 cells
Assay: Gene expression profiling, NanoString nCounter PanCancer Pathways Panel, ROSALIND analysis
Format: cell-based, human
Settings: RPMI-8226, TCH-165 samples 1-3
Experimental: RPMI-8226 cells were treated with vehicle or TCH-165 (10 μM) for 4 h. Total RNA was obtained using the mirVana miRNA Isolation Kit, with phenol (Thermofisher Scientific; AM1560; Waltham, MA, USA). Total RNA was quantified by Qubit (Thermofisher Scientific; Q32855; Waltham, MA, USA). and gene expression was evaluated against the nCounter® PanCancer Pathways Panel^TM according to the standard NanoString protocol.
Data were analyzed by ROSALIND® [36] with a hyperscale architecture developed by ROSALIND, Inc. (San Diego, CA, USA). Normalization, fold changes and p-values were calculated using criteria provided by NanoString. ROSALIND follows the nCounter® Advanced Analysis protocol of dividing counts within a lane by the geometric mean of the normalizer probes from the same lane. Housekeeping probes to be used for normalization are selected based on the geNorm algorithm, as implemented in the NormqPCR R library. Fold changes and p-values are calculated using the fast method as described in the nCounter Advanced Analysis 2.0 User Manual. The p-value adjustment is performed using the Benjamini–Hochberg method of estimating false discovery rates (FDR). Clustering of genes for the final heatmap of differentially expressed genes was done using the PAM (Partitioning Around Medoids) method using the fpc R library. Hypergeometric distribution was used to analyze the enrichment of pathways, gene ontology, domain structure and other ontologies. The topGO R library was used to determine local similarities and dependencies between GO terms in order to perform Elim pruning correction. Several database sources were referenced for enrichment analysis, including Interpro [40], NCBI [41], MSigDB [42, 43], REACTOME [44], WikiPathways. Enrichment was calculated relative to a set of background genes relevant to the experiment.

CCOC(=O)[C@]1(c2ccccc2)N=C(c2ccc(OC)cc2)N(Cc2ccccc2)[C@@H]1c1ccc(NCc2ccccc2)cc1 [TCH-165] was tested, and the “RPA3 normalized gene expression” value was 6.234 and 6.077 and 5.975, the “RPS6KA5 normalized gene expression” value was 8.162 and 8.249 and 8.109 and the “RPS6KA6 normalized gene expression” value was 4.308 and 4.154 and 4.653. For the same molecule, the “RPS27A normalized gene expression” value was 16.3114 and 16.3789 and 16.3612, the “RRAS2 normalized gene expression” value was 6.59 and 6.242 and 6.0682 and the “RUNX1T1 normalized gene expression” value was 4.649 and 5.3768 and 5.0682. For the same molecule, the “RUNX1 normalized gene expression” value was 7.156 and 7.154 and 7.31, the “RXRG normalized gene expression” value was 5.758 and 5.569 and 5.1271 and the “SETBP1 normalized gene expression” value was 9.152 and 8.96 and 8.955. For the same molecule, the “SETD2 normalized gene expression” value was 9.224 and 9.1619 and 9.096, the “SF3B1 normalized gene expression” value was 10.9301 and 10.7965 and 10.7773 and the “SFN normalized gene expression” value was 7.723 and 7.476 and 7.668. For the same molecule, the “SFRP1 normalized gene expression” value was 5.401 and 5.0613 and 4.731, the “SFRP2 normalized gene expression” value was 4.723 and 4.427 and 4.613 and the “SFRP4 normalized gene expression” value was 1.986 and 2.3768 and 2.483. The “SGK2 normalized gene expression” value was 4.401 and 4.324 and 4.0682, the “SHC1 normalized gene expression” value was 10.583 and 10.7262 and 10.7216 and the “SHC2 normalized gene expression” value was 3.723 and 3.962 and 3.653. The “SHC3 normalized gene expression” value was 6.308 and 6.364 and 6.251, the “SIN3A normalized gene expression” value was 9.8539 and 9.738 and 9.646 and the “SIRT4 normalized gene expression” value was 5.156 and 4.739 and 5.238. The “SIX1 normalized gene expression” value was 3.571 and 3.3768 and 4.1271, the “SKP1 normalized gene expression” value was 12.8613 and 12.7826 and 12.7408 and the “SKP2 normalized gene expression” value was 8.831 and 8.717 and 8.705. The “SMAD2 normalized gene expression” value was 9.453 and 9.37 and 9.493, the “SMAD3 normalized gene expression” value was 6.723 and 6.646 and 6.759 and the “SMAD4 normalized gene expression” value was 9.445 and 9.475 and 9.381. For the same molecule, the “SMAD9 normalized gene expression” value was 4.208 and 3.657 and 4.238, the “SMARCA4 normalized gene expression” value was 10.8723 and 10.9931 and 10.958 and the “SMARCB1 normalized gene expression” value was 9.431 and 9.4165 and 9.399. For the same molecule, the “SMC1A normalized gene expression” value was 10.4464 and 10.4079 and 10.3505, the “SMC1B normalized gene expression” value was 4.401 and 3.739 and 3.731 and the “SMC3 normalized gene expression” value was 10.9533 and 10.9237 and 10.9519. The “SMO normalized gene expression” value was 5.986 and 5.657 and 5.341, the “SOCS1 normalized gene expression” value was 6.892 and 6.769 and 6.683 and the “SOCS2 normalized gene expression” value was 5.955 and 5.476 and 5.5707. For the same molecule, the “SOCS3 normalized gene expression” value was 5.827 and 5.351 and 5.613, the “SOS1 normalized gene expression” value was 8.45 and 8.321 and 8.235 and the “SOS2 normalized gene expression” value was 7.434 and 7.338 and 7.36. For the same molecule, the “SOST normalized gene expression” value was 3.86 and 3.3768 and 3.805, the “SOX9 normalized gene expression” value was 5.044 and 5.093 and 4.731 and the “SP1 normalized gene expression” value was 7.695 and 7.694 and 7.736. For the same molecule, the “SPOP normalized gene expression” value was 6.308 and 6.324 and 6.0531, the “SPP1 normalized gene expression” value was 11.9193 and 11.8738 and 11.9244 and the “SPRY1 normalized gene expression” value was 4.308 and 4.154 and 4.184. For the same molecule, the “SPRY2 normalized gene expression” value was 5.793 and 5.154 and 5.0682, the “SRSF2 normalized gene expression” value was 10.5286 and 10.321 and 10.2662 and the “SSX1 normalized gene expression” value was 4.571 and 4.614 and 4.341. For the same molecule, the “STAG2 normalized gene expression” value was 11.0854 and 11.0452 and 11.0734, the “STAT1 normalized gene expression” value was 8.92 and 8.846 and 9.0757 and the “STAT3 normalized gene expression” value was 9.132 and 9.111 and 9.089. For the same molecule, the “STAT4 normalized gene expression” value was 7.259 and 7.045 and 7.149, the “STK11 normalized gene expression” value was 7.868 and 7.592 and 7.623 and the “STMN1 normalized gene expression” value was 12.569 and 12.5392 and 12.5363. For the same molecule, the “SYK normalized gene expression” value was 10.2633 and 10.2568 and 10.1565, the “TCF3 normalized gene expression” value was 9.548 and 9.673 and 9.547 and the “TCL1B normalized gene expression” value was 2.986 and 2.569 and 2.943. For the same molecule, the “TET2 normalized gene expression” value was 7.142 and 7.021 and 6.918, the “TFDP1 normalized gene expression” value was 10.7659 and 10.7019 and 10.7109 and the “TGFB1 normalized gene expression” value was 8.78 and 8.675 and 8.641. For the same molecule, the “TGFB2 normalized gene expression” value was 3.86 and 3.27 and 3.943, the “TGFB3 normalized gene expression” value was 4.986 and 4.891 and 4.483 and the “TGFBR2 normalized gene expression” value was 7.169 and 7.004 and 6.787. The “THBS1 normalized gene expression” value was 5.445 and 4.927 and 4.769, the “THBS4 normalized gene expression” value was 3.208 and 2.569 and 3.291 and the “TIAM1 normalized gene expression” value was 5.793 and 5.476 and 5.414. For the same molecule, the “TLR2 normalized gene expression” value was 6.355 and 5.855 and 5.876, the “TLR4 normalized gene expression” value was 8.52 and 8.18 and 8.197 and the “TLX1 normalized gene expression” value was 3.86 and 4.427 and 4.1271. For the same molecule, the “TMPRSS2 normalized gene expression” value was 6.182 and 6.093 and 6.1126, the “TNC normalized gene expression” value was 4.723 and 4.7789 and 4.39 and the “TNF normalized gene expression” value was 4.986 and 4.817 and 5.0682. For the same molecule, the “TNFAIP3 normalized gene expression” value was 7.658 and 7.488 and 7.528, the “TNFRSF10A normalized gene expression” value was 7.986 and 7.827 and 7.893 and the “TNFRSF10B normalized gene expression” value was 6.61 and 6.5 and 6.602. The “TNFRSF10C normalized gene expression” value was 4.101 and 3.891 and 3.943, the “TNFRSF10D normalized gene expression” value was 6.827 and 6.476 and 6.461 and the “TNFSF10 normalized gene expression” value was 8.202 and 8.1619 and 8.225. For the same molecule, the “TNR normalized gene expression” value was 5.686 and 5.297 and 5.5707, the “TP53 normalized gene expression” value was 10.0117 and 9.981 and 9.929 and the “TPO normalized gene expression” value was 4.924 and 5.184 and 5.156. The “TSC1 normalized gene expression” value was 8.714 and 8.273 and 8.399, the “TSHR normalized gene expression” value was 4.649 and 4.476 and 4.39 and the “TSPAN7 normalized gene expression” value was 6.776 and 6.891 and 6.539. For the same molecule, the “TTK normalized gene expression” value was 9.89 and 9.8374 and 9.804, the “U2AF1 normalized gene expression” value was 12.4063 and 12.4515 and 12.4562 and the “UBB normalized gene expression” value was 12.5802 and 12.4733 and 12.4875. For the same molecule, the “UBE2T normalized gene expression” value was 10.5402 and 10.5496 and 10.5687, the “UTY normalized gene expression” value was 3.86 and 4.093 and 4.0682 and the “VEGFA normalized gene expression” value was 10.7951 and 10.7989 and 10.8309.
